In patent US20230180804A1, “FLAVOR COMPOSITION, AND FOOD AND BEVERAGE” (TAKASAGO INTERNATIONAL CORPORATION, priority 2020, published 2023):

Key:
olfactory receptor OR9Q2 = target: T1, olfactory receptor OR9Q2 (Homo sapiens, UniProt Q8NGE9); assay: OR9Q2 response inhibitory effect for p-cresol, luciferase reporter gene assay; type: cell-based; details: p-cresol 100 µM mixed with various concentrations of compound; cells expressing OR9Q2; ratio of Fold Increase value (FIGS. 1 to 11)
T1 construct: 20 N-terminal amino acid residues of bovine rhodopsin (Rho tag); expressed in transfected cells; host or cells: HEK293T
T1 sequence (Q8NGE9 1-314): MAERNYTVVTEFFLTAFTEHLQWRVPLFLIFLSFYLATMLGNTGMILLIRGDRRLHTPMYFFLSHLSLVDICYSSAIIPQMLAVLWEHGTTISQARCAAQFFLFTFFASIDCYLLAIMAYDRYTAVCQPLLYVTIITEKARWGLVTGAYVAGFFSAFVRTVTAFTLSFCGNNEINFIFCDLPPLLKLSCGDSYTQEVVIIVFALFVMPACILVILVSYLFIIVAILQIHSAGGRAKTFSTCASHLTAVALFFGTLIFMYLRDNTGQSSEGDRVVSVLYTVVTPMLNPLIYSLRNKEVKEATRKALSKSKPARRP
Method: The human olfactory receptor gene was obtained by cloning from Human Genomic DNA: Female (Promega) by PCR method based on the sequence information registered in GenBank. The 20 N-terminal amino acid residues of bovine rhodopsin were incorporated into the pME18S vector, and the obtained human olfactory receptor gene was incorporated downstream thereof to obtain a human olfactory receptor gene expression vector.
In 10 µL of Opti-MEM I (gibco), 0.05 µg of human olfactory receptor gene expression vector, 0.01 µg of RTP1S vector, 0.01 µg firefly luciferase vector pGL4.29 (Promega) containing cAMP response element promoter, and 0.005 µg of Renilla luciferase vector pGL4.74 (Promega) containing thymidine kinase promoter were dissolved to prepare a gene solution (for one well). HEK293T cells were seeded at 100 µL each in a 96-well plate (Biocoat, Coming) at the number of cells reaching confluence after 24 hours, and a gene solution was added to each well by the lipofection method according to the usage of Lipofectamine 3000 to introduce genes into the cells, and the cells were cultured at 37° C. in a 5% carbon dioxide atmosphere for 24 hours.
After removing the culture medium, the resultant was prepared with CD293 (gibco) medium ([…] added) so as to have a concentration for measuring the aroma substance to be tested, 50 µL of which was added each and stimulated for 3 hours, and then luciferase activity was measured according to the method of using the Dual-Luciferase Reporter Assay System (Promega). The response intensity of the olfactory receptor polypeptide was expressed as a Fold Increase value obtained by dividing the luciferase activity produced by stimulating the aroma substance by the luciferase activity produced in the test system containing no aroma substance.
p-Cresol at 100 µM was mixed with various concentrations of 1-oxacycloheptadecan-7-en-2-one, 1-oxacycloheptadecan-8-en-2-one, isoambrettolide, pentalide, muscone, civetone, 8-2-decenolactone, cinnamic aldehyde, […], sclareolide, and ethyl maltol, and receptor responses were measured in cells expressing OR9Q2. The ratio of the Fold Increase value in the test in which each compound was mixed was calculated, where the Fold Increase value in the test in none of these compounds was mixed was set to 100. FIGS. 1 to 11 present the results.

[1] = Sensory evaluation of p-cresol odor masking in p-cresol-containing citrus-flavored beverage; details: for p-Cresol Odor Intensity: beverage with 50 ppb p-cresol, average score of 7 panelists, scale 0-4; for concentration at which the compound masks the p-cresol odor and does not affect the citrus flavor, lower limit / concentration at which the compound masks the p-cresol odor and does not affect the citrus flavor, upper limit: citrus-flavored beverage with 50 ppb p-cresol
Method: To 2 g of lemon flavor obtained by making lemon oil into an essence, purified water was added to adjust the total amount to 1000 ml. To this citrus-flavored beverage, p-cresol adjusted to a concentration of 1% by mass with 95% ethanol was added to 50 ppb in the citrus-flavored beverage. To this p-cresol-containing citrus-flavored beverage, 1-oxacycloheptadecan-7-en-2-one was added at the concentrations presented in Table 1 to confirm the p-cresol odor intensity (masking effect) and the influence on the citrus flavor of each sample.
For the test, seven skilled panelists were selected to perform sensory evaluation. The p-cresol odor intensity of the p-cresol-containing citrus-flavored beverage without added l-oxacycloheptadecan-7-en-2-one was determined as “Rating: 4,” and the p-cresol odor intensity of the p-cresol-free citrus-flavored beverage was determined as “Rating: 0,” and the p-cresol odor intensity (masking effect) of each sample was relatively evaluated according to the following evaluation criteria.
In addition, the influence of the citrus-flavored beverage on the citrus flavor was evaluated absolutely according to the following evaluation criteria for the presence or absence of off- flavor other than p-cresol odor and citrus flavor (Off-Flavor Intensity).
The results are as in Table 1, presenting the average score of the evaluation results for each panelist.

| Compound | effect of suppressing the response of OR9Q2 to p-cresol (olfactory receptor OR9Q2) | p-Cresol Odor Intensity ([1]; 1 ppb added) [points] | p-Cresol Odor Intensity ([1]; 1 ppm added) [points] | p-Cresol Odor Intensity ([1]; 1 ppt added) [points] | p-Cresol Odor Intensity ([1]; 10 ppb added) [points] | p-Cresol Odor Intensity ([1]; 10 ppm added) [points] | p-Cresol Odor Intensity ([1]; 10 ppt added) [points] | p-Cresol Odor Intensity ([1]; 100 ppb added) [points] | p-Cresol Odor Intensity ([1]; 100 ppt added) [points] | concentration at which the compound masks the p-cresol odor and does not affect the citrus flavor, lower limit [1] [ppt] | concentration at which the compound masks the p-cresol odor and does not affect the citrus flavor, upper limit [1] | p-Cresol Odor Intensity ([1]; 0.001 ppt added) [points] | p-Cresol Odor Intensity ([1]; 0.01 ppt added) [points] | p-Cresol Odor Intensity ([1]; 0.1 ppt added) [points] | p-Cresol Odor Intensity ([1]; 100 ppm added) [points] |
| --- | --- | --- | --- | --- | --- | --- | --- | --- | --- | --- | --- | --- | --- | --- | --- |
| CCCCCC1CC=CC(=O)O1 (stereo not shown) [δ-2-Decenolactone, δ-2-decenolactone] | suppressing the response of OR9Q2 to p-cresol in a concentration-dependent manner | 2.3 | 1.3 | 3.9 | 2.0 | 0.7 | 2.7 | 1.6 | 2.4 | ≥ 10 | ≤ 100 ppb |  |  |  |  |
| O=C1CCCCCCC/C=C\CCCCCCC1 [Civetone, civetone] | suppressing the response of OR9Q2 to p-cresol in a concentration-dependent manner | 1.0 |  | 1.9 | 0.9 |  | 1.6 | 0.4 | 1.1 | ≥ 0.01 | ≤ 1 ppb | 3.7 | 2.7 | 2.3 |  |
| CC1(C)CCC[C@]2(C)[C@H]3CC(=O)O[C@]3(C)CC[C@@H]12 [Sclareolide, sclareolide] | suppressing the response of OR9Q2 to p-cresol in a concentration-dependent manner | 2.1 | 1.0 |  | 1.9 | 0.4 | 3.6 | 1.1 | 2.6 | ≥ 100 | ≤ 1 ppm |  |  |  |  |
| O=C/C=C/c1ccccc1 [Cinnamic Aldehyde, cinnamic aldehyde] | suppressing the response of OR9Q2 to p-cresol in a concentration-dependent manner | 2.3 | 1.7 |  | 2.0 | 0.9 | 3.9 | 2.0 | 2.7 | ≥ 100 | ≤ 10 ppm |  |  |  | 0.6 |
| CCc1occc(=O)c1O [Ethyl Maltol, ethyl maltol] | suppressing the response of OR9Q2 to p-cresol in a concentration-dependent manner | 2.3 | 1.4 |  | 2.0 | 1.3 | 3.7 | 1.6 | 2.7 | ≥ 100 | ≤ 10 ppm |  |  |  | 0.4 |
